Measurements reported in ChEMBL document CHEMBL4043215, “Synergistic antiproliferative effect of chemo-phototherapy: Synthesis and photodynamic activity evaluation of novel Chlorin e6-artesunate conjugates as antiproliferative agents” (Bioorg Med Chem Lett, 2017).
Calls of active or inactive are those of the source. No cut-off for these calls is given here.

Experiments:
[1] = Dark toxicity against human HepG2 cells assessed as reduction in cell viability incubated overnight by MTT assay; assay type: cell-based
[2] = test system: HepG2; experiment: Phototoxicity against human HepG2 cells assessed as reduction in cell viability preincubated overnight followed by irradiation with LED light at 1.7 J/cm'2 for 10 mins measured post overnight incubation by MTT assay; assay type: functional, cell-based; conditions: HepG2, light or radiation study
[3] = test system: HepG2; experiment: Phototoxicity against human HepG2 cells assessed as reduction in cell viability up to 100 uM irradiated with LED light at 1.7 J/cm'2 measured after 12 hrs by MTT assay; assay type: functional, cell-based
[4] = Induction of singlet oxygen production in Tris-Hcl buffer after irradiation with LED light at 1.7 J/cm'2 at 100 uM at pH 7.4 by ATTA-Eu3+ probe based fluorescence microscopy
[5] = test system: HepG2; experiment: Induction of intracellular ROS production in human HepG2 cells at 30 uM incubated for 10 hrs followed by DCF-DA addition for 20 mins in dark and irradiated with LED light at 1.7 J/cm'2 by fluorescence assay; assay type: functional, cell-based
[6] = Drug uptake in human HepG2 cells at 30 uM measured up to 10 hrs by fluorescence assay; assay type: ADME, cell-based; conditions: hepg2, 10 h

Structure (SMILES) | IC50 [1] | IC50 [2] | Activity [3] | Activity [4] | Activity [5] | Drug uptake [6]
C=Cc1c(C)c2cc3nc(c(CC(=O)NCCNC(=O)CCC(=O)O[C@@H]4O[C@@H]5O[C@@]6(C)CC[C@H]7[C@H](C)CC[C@@H]([C@H]4C)[C@@]57OO6)c4[nH]c(cc5nc(cc1[nH]2)C(C)=C5CC)c(C)c4C(=O)NCCNC(=O)CCC(=O)O[C@@H]1O[C@@H]2O[C@@]4(C)CC[C@H]5[C@H](C)CC[C@@H]([C@H]1C)[C@@]25OO4)[C@@H](CCC(=O)NCCNC(=O)CCC(=O)O[C@@H]1O[C@@H]2O[C@@]4(C)CC[C@H]5[C@H](C)CC[C@@H]([C@H]1C)[C@@]25OO4)[C@@H]3C | 12.9 µM | 0.8 µM | Active | inactive | Active | Active
C=Cc1c(C)c2cc3nc(c(CC(=O)O)c4[nH]c(cc5nc(cc1[nH]2)C(C)=C5CC)c(C)c4C(=O)O)[C@@H](CCC(=O)NCCNC(=O)CCC(=O)O[C@@H]1O[C@@H]2O[C@@]4(C)CC[C@H]5[C@H](C)CC[C@@H]([C@H]1C)[C@@]25OO4)[C@@H]3C | 29.1 µM | 1.5 µM | Active | Active | Active | Active
C=Cc1c(C)c2cc3nc(c(CC(=O)NCCNC(=O)CCC(=O)O[C@@H]4O[C@@H]5O[C@@]6(C)CC[C@H]7[C@H](C)CC[C@@H]([C@H]4C)[C@@]57OO6)c4[nH]c(cc5nc(cc1[nH]2)C(C)=C5CC)c(C)c4C(=O)O)[C@@H](CCC(=O)O)[C@@H]3C | 57 µM | 2.4 µM | Active | Active | Active | Active
C=Cc1c(C)c2cc3nc(c(CC(=O)O)c4[nH]c(cc5nc(cc1[nH]2)C(C)=C5CC)c(C)c4C(=O)NCCNC(=O)CCC(=O)O[C@@H]1O[C@@H]2O[C@@]4(C)CC[C@H]5[C@H](C)CC[C@@H]([C@H]1C)[C@@]25OO4)[C@@H](CCC(=O)O)[C@@H]3C | 36.6 µM | 1.8 µM | Active | Active | Active | Active
C[C@H]1[C@H](OC(=O)CCC(=O)O)O[C@@H]2O[C@@]3(C)CC[C@H]4[C@H](C)CC[C@@H]1[C@@]24OO3 [ARTESUNATE] | 6.5 µM | 7.7 µM | Active | – | Active | –
C=CC1=C(C)/C2=C/C3=NC(=C(/CC(=O)NCCNC(=O)OC(C)(C)C)c4[nH]c(c(C)c4C(=O)O)/C=C4\N=C(CC1N2)C(C)=C4CC)/[C@@H](CCC(=O)O)[C@@H]3C (stereo not given in full) | – | – | – | – | Active | Active
